Experimental data taken from patent US11491155B2, “Salt of a pyrimido[6,1-A]isoquinolin-4-one compound” (VERONA PHARMA PLC, priority 2015, dated 2022).
Counter-ions that a name gives are not always drawn.

Columns and labels:
[1] = Physico-chemical characteristics of salt candidates: solubility in water, pH of aqueous suspension/solution, form post water maturation
Procedure: The physico-chemical characteristics of the salt candidates were determined.

[2] = Primary particle size analysis by laser light diffraction (Mastersizer 2000); format: physicochemical; details: micronised, mean n=3
Procedure: A Mastersizer 2000 fitted with a Scirocco 2000 dry powder dispersion unit (Malvern Instruments Ltd, UK) was used to analyse the primary particle size of the micronised RPL554 and salt variants. The salts (50 mg) were automatically sampled via a vibrating feed control at a feeder rate of 60% and dispersed in compressed air at a pressure of 3 bar.

[3] = Solubility of RPL554 salts in saline solutions, water and aqueous buffer solutions at 25° C. (HPLC); format: physicochemical; details: 24 hours; for Solubility as RPL554 (mg/ml) in Water: deionised water
Procedure: The behaviour of salts of RPL554 were examined under the following conditions: • Phosphate buffered to pH 3.5 in saline, 0.9% w/w at 25° C. • Acetate buffered to pH 4.5 in saline, 0.9% w/w at 25° C. • Citro-Phosphate buffered to pH 4.5 in saline, 0.9% w/w at 25° C. • Phosphate buffered to pH 6.5 in saline, 0.9% w/w at 25° C. • Saline, 0.7, 0.9 and 1.1% w/w at 25° C. • Deionised water at 25° C.
RPL554 salts and RPL554, ca 50 mg, were suspended in the various aqueous media, 1 ml, with agitation at the specified temperatures for 24 hours. The solids were isolated and dried in vacuo at 45° C. The retained filtrates were examined by HPLC.
Additional RPL554 methane sulfonate salt, ca 50 mg, was charged to the water mixtures at 25° C. and 37.5° C. in order to afford a suspension. In all other cases, suspensions were obtained.
The solubility of the RPL554 was determined by HPLC using a single point calibration and is expressed as RPL554 and not as the salt and are detailed in Table 6 and Table 7 for the various conditions utilised.

[4] = RPL554 content and content uniformity of 1% w/w lactose powder blends; format: physicochemical; details: for Measured Blend Content (% Theoretical): 1% w/w RPL554 variant: lactose powder blend, expressed as RPL554 base; for **Adjusted RPL554 Content per capsule: per 20 mg capsule of 1% w/w lactose blend, adjusted for measured blend content (% theoretical), as RPL554 base
Procedure: Batches (approximately 5 g) of 1% w/w RPL554 free base or salt variants: lactose blends were prepared. In brief, the RPL554 free base or salt plus a small quantity of lactose was passed through a 38 μm sieve. The sieved material plus the remaining lactose was mixed in a glass mortar prior to transfer to a stainless steel screw cap jar and further mixing (10 minutes at 46 rpm) conducted using a Turbula blender. The composition of the dry powder blend was 0.05 g API and 4.95 g lactose.
In order to determine the content uniformity of the blends, aliquots (approx. 20 mg) of powder were sampled from each blend, accurately weighed, and diluted to volume in 10 mL volumetric flasks with diluent. The flasks were sonicated for 3 minutes before samples were transferred to HPLC vials for analysis.

[5] = Aerosol performance of DPI formulations (Cyclohaler, NGI); format: physicochemical; details: for †Measured Mass of 1% w/w Blend Delivered per capsule / ††RPL554 Emitted (μg) per capsule (B): Cyclohaler; for †Measured Mass of 1% w/w Blend Delivered per capsule: 5 capsules containing 20 mg powder blend, mass from weight change of capsule-loaded device; for ††RPL554 Emitted (μg) per capsule (B): NGI, mass determined from HPLC analysis of recovered samples; for ††RPL554 Emitted (μg) per capsule (B) / Calculated RPL554 Content (μg) per capsule (A): as RPL554 base; for Calculated RPL554 Content (μg) per capsule (A): calculated from delivered blend mass and measured blend content
Procedure: Capsules were hand filled with 20 mg of the 1% w/w RPL554 free base or salt variants: lactose blends, i.e. 200 μg salt per capsule, the fill weight of each capsule was recorded. Due to differences in the molecular weights of the RPL554 salt forms, the amount of RPL554 emitted per actuation varied as a function of molecular weight. The formulations were prepared with no adjustment for differences in molecular weight of the salts.
The powders were delivered via the Cyclohaler® DPI (PCH Pharmachemie, BV, The Netherlands). The Cyclohaler® DPI is a low resistance device and was operated at a flow rate of 90 L/min for 2.7 seconds. The cut off diameters for the NGI collection stages were calculated for the 90 L/min flow rate using the NGI User Guide (MSP Corporation, 2008).
The ED, FPD and FPF were determined from inertial impaction tests performed following the deposition of 5 capsules of each formulation into the NGI. For each capsule tested the combined weight of the Cyclohaler® and capsule was determined before and after operation to check that the dose had been delivered. The NGI was fitted with a pre-separator for these determinations. The central cup of the pre-separator was filled with 15 mL of diluent. Following deposition, the solution was recovered in a 20 mL volumetric flask and made up to volume with diluent. RPL554 was quantitatively recovered from the device, induction port and each of the NGI collection stages with 10 mL of diluent.
The volume of diluent used for each sample was selected to ensure RPL554 concentrations were above the limit of quantitation.

[6] = Solubility of RPL554 and salts in pMDI propellant systems; format: physicochemical
Procedure: Quantitative assessment of the solubility of RPL554 and salt variants in the propellant systems of selected pMDI formulations (three replicates of each formulation) was performed. pMDIs were directly coupled to an adaptor fitted with a 0.20 μm filter unit connected, in series to a 21 G needle, which was inserted via a rubber septum, into a cooled multi-dose glass vial. A 19 G filter needle was inserted through the septum to aid evaporation of propellant from the vial. Prior to the filtration process the vial was cooled in a mixture of dry ice and acetone to ensure that the pressure within the vial was reduced in order to facilitate collection of the output from the pMDI. Ten consecutive actuations of the pMDI were fired through the filter and collected in the vial. Between actuations the canister was shaken for approximately 10 seconds. The pMDI unit was weighed before and after the filtering procedure. The filtrate was stored at room temperature and allowed to evaporate to dryness.
Samples were recovered by carefully rinsing the inside of the vials with 1 mL of recovery solution before transfer to HPLC vials for analysis. The estimated % of RPL554 solubilised within the canister was calculated from the starting mass of RPL554 within the canisters, which in turn was calculated using the theoretical molecular weight values of the RPL554 free base and salt variants shown in Table 13. The theoretical molecular weight estimates of the salts were provided by Verona.

[7] = Intrinsic dissolution of compressed tablet, pH 7.0, 37° C. (Sirius inForm); format: physicochemical; details: for mass dissolved: initial peak; for Mass of salt (μg) dissolved after 2 hours, Average / Mass of salt (μg) dissolved after 2 hours, Test 1 / Mass of salt (μg) dissolved after 2 hours, Test 2: pH 7.0, 0.15 M NaCl, 37° C.
Procedure: The dissolution assay (pH-dependent sample dissolution) was investigated using the Sirius inForm.
Dissolution of a compressed tablet of the compound was monitored in a pH 7.0 aqueous dissolution experiment (0.15 M NaCl) at 37° C. using UV-absorption spectroscopy in 2 hour experiments. A tablet with a diameter of 3 mm, requiring approximate weights of 10 mg was compressed under a weight of 100 kg load force. Only one face of the tablet was exposed to the dissolution medium, which contained a 0.01 M acetate/phosphate buffer system to minimise perturbation of the experimental pH from dissolution of the drug.
Stirring of the solution was continuous and at a constant rate of 100 rpm. The absorption data was converted to absolute sample weights using previously determined, pH-dependent, molar extinction coefficients. An appropriate wavelength range was chosen to ensure that spectroscopic data with an absorption value of <1.3 was analysed, avoiding erroneous dissolution results due to saturation of the UV light source.

[8] = in HFA 134 with Ethanol/Tween, hydrobromide
[9] = listed as hydrobromide salt, hydrobromide

Compound: COc1cc2c(cc1OC)-c1c/c(=N\c3c(C)cc(C)cc3C)n(CCNC(N)=O)c(=O)n1CC2 [Ethanesulfonate, RPL554 ethanesulfonate]
- pH of aqueous suspension/solution ([1]; listed as Ethane sulfonic): 3.04
- D (0.1) (μm) [2]: 0.56 μm
- D (0.5) (μm) [2]: 1.43 μm
- D (0.9) (μm) [2]: 4.18 μm
- Solubility as RPL554 (mg/ml) in 0.7 w/w % Saline [3]: 1.62 mg/mL
- Solubility as RPL554 (mg/ml) in 0.9 w/w % Saline [3]: 0.79 mg/mL
- Solubility as RPL554 (mg/ml) in 1.1 w/w % Saline [3]: 1.27 mg/mL
- Solubility as RPL554 (mg/ml) in Water [3]: 21.37 mg/mL
- Measured Blend Content (% Theoretical) [4]: 98.79 % Theoretical
- **Adjusted RPL554 Content per capsule [4]: 160.55 µg
- †Measured Mass of 1% w/w Blend Delivered per capsule [5]: 20.18 mg
- ††RPL554 Emitted (μg) per capsule (B) [5]: 111.09 µg
- Calculated RPL554 Content (μg) per capsule (A) [5]: 162.00 µg
- Calculated RPL554 solubilised (%) ([6]; in HFA 134): 5.56%
- Calculated Solubilised RPL554 μg per 50 μL actuation ([6]; in HFA 134): 9.03 µg
- Solubility RPL554 ([6]; in HFA 134, BLQ = below limit of quantitation (0.06 μg/mL)): 126.81 µg/g
- Solubility RPL554 (μg/g) ([6]; in HFA 134, BLQ = below limit of quantitation (0.06 μg/mL), listed as ethanesulfonate): quantifiable levels of solubility
- Estimated RPL554 solubilised (%) ([6]; in HFA 134 with Ethanol/Tween): 10.96%
- Estimated Solubilised RPL554 μg per 50 μL actuation ([6]; in HFA 134 with Ethanol/Tween): 17.81 µg
- Solubility RPL554 ([6]; in HFA 134 with Ethanol/Tween): 266.59 µg/g
- Calculated RPL554 solubilised (%) ([6]; in HFA 227): BLQ
- Calculated Solubilised RPL554 μg per 50 μL actuation ([6]; in HFA 227): BLQ
- Solubility RPL554 (μg/g) ([6]; in HFA 227): BLQ
- dissolution compared with free base / other salts ([7]; 2 hour experiments): higher dissolution than the rest of the salts
- mass dissolved ([7]; at 5.7 min): 600 µg
- mass dissolved ([7]; at 13 min): 700 µg
- Mass of salt (μg) dissolved after 2 hours, Average ([7]; listed as ethanesulfonate salt): 355 µg
- Mass of salt (μg) dissolved after 2 hours, Test 1 ([7]; listed as ethanesulfonate salt): 300 µg
- Mass of salt (μg) dissolved after 2 hours, Test 2 ([7]; listed as ethanesulfonate salt): 410 µg

Compound: COc1cc2c(cc1OC)-c1c/c(=N\c3c(C)cc(C)cc3C)n(CCNC(N)=O)c(=O)n1CC2 [Hydrobromide, RPL554 hydrobromide]
- pH of aqueous suspension/solution ([1]; listed as HBr, hydrobromide): 3.20
- D (0.1) (μm) ([2]; hydrobromide): 0.64 μm
- D (0.5) (μm) ([2]; hydrobromide): 1.52 μm
- D (0.9) (μm) ([2]; hydrobromide): 3.23 μm
- Solubility as RPL554 (mg/ml) in 0.7 w/w % Saline ([3]; hydrobromide): 0.95 mg/mL
- Solubility as RPL554 (mg/ml) in 0.9 w/w % Saline ([3]; hydrobromide): 0.82 mg/mL
- Solubility as RPL554 (mg/ml) in 1.1 w/w % Saline ([3]; hydrobromide): 0.66 mg/mL
- Solubility as RPL554 (mg/ml) in Water ([3]; hydrobromide): 3.43 mg/mL
- Measured Blend Content (% Theoretical) ([4]; hydrobromide): 83.37 % Theoretical
- **Adjusted RPL554 Content per capsule ([4]; hydrobromide): 142.58 µg
- †Measured Mass of 1% w/w Blend Delivered per capsule ([5]; hydrobromide): 19.96 mg
- ††RPL554 Emitted (μg) per capsule (B) ([5]; hydrobromide): 104.28 µg
- Calculated RPL554 Content (μg) per capsule (A) ([5]; hydrobromide): 142.29 µg
- Solubility RPL554 (μg/g) ([6]; in HFA 134, BLQ = below limit of quantitation (0.06 μg/mL), hydrobromide): BLQ
- Calculated RPL554 solubilised (%) ([6]; in HFA 134, hydrobromide): BLQ
- Calculated Solubilised RPL554 μg per 50 μL actuation ([6]; in HFA 134, hydrobromide): BLQ
- Estimated RPL554 solubilised (%) [6, 8]: 3.74%
- Estimated Solubilised RPL554 μg per 50 μL actuation [6, 8]: 6.40 µg
- Solubility RPL554 [6, 8]: 96.27 µg/g
- Mass of salt (μg) dissolved after 2 hours, Average [7, 9]: 35.3 µg
- Mass of salt (μg) dissolved after 2 hours, Test 1 [7, 9]: 30.4 µg
- Mass of salt (μg) dissolved after 2 hours, Test 2 [7, 9]: 40.1 µg
